Test results published in article PMC6941357, “An in vitro toolbox to accelerate anti-malarial drug discovery and development” (Malaria Journal, 2020).
pIC50, pKi: −log10 of the molar value. Values joined by “and” are separate entries in the source; they are usually repeats but may differ in a detail not shown here. Identical values can stand only once.

Key:
[1] = biological target: T1, Albumax medium (lipid rich bovine serum albumin) (Bos taurus, UniProt P02769); assay: Binding in Albumax medium via ultracentrifugation; assay type: in vitro ADME
T1 construct: purchased Gibco, Thermo Fisher Scientific
T1 sequence (P02769 25-607): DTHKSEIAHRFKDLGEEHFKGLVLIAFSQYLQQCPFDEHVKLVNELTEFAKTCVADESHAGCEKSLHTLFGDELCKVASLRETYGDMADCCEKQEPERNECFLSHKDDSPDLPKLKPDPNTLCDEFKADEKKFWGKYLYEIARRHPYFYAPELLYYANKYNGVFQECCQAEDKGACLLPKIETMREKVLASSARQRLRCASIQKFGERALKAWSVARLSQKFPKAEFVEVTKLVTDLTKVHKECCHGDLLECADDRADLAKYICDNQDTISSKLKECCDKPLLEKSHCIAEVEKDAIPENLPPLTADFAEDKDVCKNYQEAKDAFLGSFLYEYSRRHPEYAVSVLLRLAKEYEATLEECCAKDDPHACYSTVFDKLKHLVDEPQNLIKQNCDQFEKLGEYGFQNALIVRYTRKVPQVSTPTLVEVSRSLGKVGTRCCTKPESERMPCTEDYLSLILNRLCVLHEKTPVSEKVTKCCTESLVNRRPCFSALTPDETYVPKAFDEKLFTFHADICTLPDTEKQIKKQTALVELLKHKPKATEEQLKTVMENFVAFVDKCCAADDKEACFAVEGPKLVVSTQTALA
Protocol: An ultracentrifugation method adapted from a previous publication was initially used to assess plasma protein binding and binding in the other media. […] Additional ultracentrifuge tubes containing spiked matrix were maintained at 37 °C, 5% or 10% CO2 or normal atmosphere conditions, with aliquots being taken within 0.5 h of the start and at the end of ultracentrifugation to serve as controls for the assessment of stability and to obtain a measure of the total concentration (Ctotal). Following ultracentrifugation, the pH was checked and an aliquot of protein-free supernate was taken from each ultracentrifuge tube for determination of the unbound concentration (Cunbound).
Total matrix and protein free samples were analysed using a matrix matching approach whereby each sample was mixed in a 1:1 ratio with the opposite blank medium (i.e. blank total matrix or blank protein free buffer). For example, plasma samples were mixed with blank pH 7.4 buffer whereas plasma supernatant samples were mixed with blank plasma. Each of the sample sets were then assayed against a common calibration curve prepared in a 1:1 mixture of total matrix and protein free pH 7.4 buffer. […] The standard deviation for fu was calculated using the propagation of errors approach as described previously. The potential for compound degradation was assessed by comparing the average value for Ctotal at the start and end of the experiment.

[2] = Solubility in biorelevant media; details: for solubility in all media tested: FaSSIF-V2, FeSSIF-V2, PBS pH 7.4
Protocol: Solubility of each active pharmaceutical ingredient was evaluated at 37 °C in pH 7.4 phosphate buffered saline (prepared as described for the partitioning experiments), fasted (FaSSIF-V2) and fed (FeSSIF-V2) state simulated intestinal fluids and fasted state simulated gastric fluid (FaSSGF) as described by Jantratid et al.. […] Samples were vortexed and placed in a 37 °C incubator on an orbital mixer (IKA® VXR basic Vibrax® orbital mixer) set at 600 rpm. Sampling times were 1 h for FaSSGF or 5–6 h for FaSSIF-V2, FeSSIF-V2, and PBS. These times were used to reflect the maximal likely residence times within the stomach and small intestine, respectively. Sampling was carried out by centrifuging each sample at 10,000 rpm for 3 min, transferring 300 µL aliquots into fresh Eppendorf tubes and centrifuging these tubes again at 10,000 rpm for 3 min. Triplicate aliquots of the supernatant were then removed and diluted 1:2 in 50% aqueous methanol and then again in 50% aqueous acetonitrile to be within the analytical concentration range. Samples were analysed by LC–MS along with calibration standards (Additional file 1: Table S2).

[3] = Octanol/pH 7.4 buffer partition coefficient, shake flask; details: octanol/pH 7.4 buffer, shake flask, 37 °C
Protocol: Partition coefficients between octanol and pH 7.4 buffer were measured using a shake flask method. A stock solution of test compound in octanol was prepared at a concentration between 3 and 30 mg/mL based on the expected partition coefficient value. This stock solution was then diluted 3- and 10-fold with octanol and used to prepare the octanol phase for the partitioning experiments. Two different dilutions were used to confirm that there were no saturation effects. Phosphate buffered saline was prepared by combining 67 mM disodium hydrogen orthophosphate and sodium dihydrogen orthophosphate (both prepared in 43 mM NaCl) to a final pH of 7.4.
Partitioning experiments were conducted by mixing equal volumes of the octanol (containing test compound) and aqueous phases and placing on a vibrating plate mixer in an incubator at 37 °C. […] An aliquot of the aqueous phase was carefully removed and centrifuged again to ensure no contamination from the octanol phase before sampling in duplicate and diluting with aqueous methanol for analysis. Diluted samples were analysed by LC–MS along with calibration standards (Additional file 1: Table S2) and partition coefficients were calculated from the ratio of the mean octanol to buffer concentration after accounting for the dilution factors. The partitioning results for the two time points were used to confirm that the partitioning experiment had reached equilibrium.

CYP2C19 = CYP2C19 (Homo sapiens, UniProt P33261); assay: in vitro
Sequence of CYP2C19 (P33261 whole entry, canonical isoform): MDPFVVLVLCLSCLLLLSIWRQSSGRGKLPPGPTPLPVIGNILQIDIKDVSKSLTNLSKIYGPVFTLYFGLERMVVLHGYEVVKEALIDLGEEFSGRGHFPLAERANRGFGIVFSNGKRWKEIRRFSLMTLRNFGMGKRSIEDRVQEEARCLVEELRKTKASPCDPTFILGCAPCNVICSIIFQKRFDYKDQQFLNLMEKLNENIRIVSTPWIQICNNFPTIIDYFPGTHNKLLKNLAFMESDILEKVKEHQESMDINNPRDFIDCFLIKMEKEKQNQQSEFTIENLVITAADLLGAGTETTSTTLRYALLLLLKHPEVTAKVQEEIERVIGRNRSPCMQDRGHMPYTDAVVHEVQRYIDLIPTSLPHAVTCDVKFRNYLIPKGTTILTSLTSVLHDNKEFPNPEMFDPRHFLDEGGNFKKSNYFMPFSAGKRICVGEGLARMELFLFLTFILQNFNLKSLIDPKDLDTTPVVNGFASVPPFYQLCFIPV
Protocol: (§1) The CYP inhibition assay was based on a previous publication with minor modifications. The method uses human liver microsomes and a substrate-specific interaction approach which relies on the formation of a metabolite that is mediated by a specific CYP isoform. The specific CYP-mediated metabolic pathways, substrates, substrate Km values, positive control inhibitors and specific incubation conditions are shown in Additional file 1: Table S4. […] Samples were quenched by the addition of ice-cold acetonitrile containing diazepam as the analytical internal standard. Concentrations of the substrate-specific metabolites in quenched samples were determined by LC–MS (Additional file 1: Table S5) relative to calibration standards prepared in quenched microsomal matrix.
(§2) The inhibitory effect of each test compound and positive control inhibitor was based on the reduction in the formation of the specific CYP-mediated metabolite (represented as percent inhibition of enzyme activity) relative to metabolite formation in the absence of inhibitor (i.e. control for maximal enzyme activity). […] The Km was determined under the same incubation conditions by measuring the rate of metabolite formation (pmol/min/mg protein) as a function of substrate concentration (Additional file 1: Table S4).

CYP2C9 = CYP2C9 (Homo sapiens, UniProt P11712); assay: in vitro
Sequence of CYP2C9 (P11712 whole entry): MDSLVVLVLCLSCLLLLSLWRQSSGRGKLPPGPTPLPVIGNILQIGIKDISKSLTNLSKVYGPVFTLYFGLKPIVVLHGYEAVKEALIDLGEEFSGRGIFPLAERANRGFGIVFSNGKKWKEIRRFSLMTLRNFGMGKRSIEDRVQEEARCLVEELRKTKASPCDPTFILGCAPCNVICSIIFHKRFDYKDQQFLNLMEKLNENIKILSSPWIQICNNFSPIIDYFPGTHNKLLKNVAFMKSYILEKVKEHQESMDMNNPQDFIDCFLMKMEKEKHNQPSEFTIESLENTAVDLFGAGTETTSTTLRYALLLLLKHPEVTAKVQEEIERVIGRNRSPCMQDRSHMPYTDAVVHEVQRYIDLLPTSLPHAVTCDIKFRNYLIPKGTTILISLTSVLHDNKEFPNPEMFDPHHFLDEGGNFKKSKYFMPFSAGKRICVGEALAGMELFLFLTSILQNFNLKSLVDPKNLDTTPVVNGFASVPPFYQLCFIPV
Protocol: as §1, §2

CYP3A4 = CYP3A4 (Homo sapiens, UniProt P08684); assay: in vitro
Sequence of CYP3A4 (P08684 whole entry): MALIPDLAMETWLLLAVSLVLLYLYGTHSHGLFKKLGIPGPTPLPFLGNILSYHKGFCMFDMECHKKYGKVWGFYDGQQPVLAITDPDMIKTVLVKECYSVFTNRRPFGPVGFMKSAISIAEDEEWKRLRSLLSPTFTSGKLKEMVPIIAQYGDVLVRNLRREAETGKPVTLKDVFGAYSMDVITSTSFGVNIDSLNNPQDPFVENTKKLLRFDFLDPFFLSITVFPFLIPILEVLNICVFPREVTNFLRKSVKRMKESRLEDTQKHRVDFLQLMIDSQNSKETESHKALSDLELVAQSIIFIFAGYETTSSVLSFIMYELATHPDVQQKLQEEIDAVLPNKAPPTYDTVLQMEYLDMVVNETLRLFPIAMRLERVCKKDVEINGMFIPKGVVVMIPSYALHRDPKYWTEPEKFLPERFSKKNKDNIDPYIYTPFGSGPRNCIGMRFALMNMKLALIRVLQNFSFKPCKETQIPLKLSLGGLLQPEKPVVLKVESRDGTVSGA
Protocol: as §1, §2

[4] = In vitro metabolism (metabolic stability) in human liver microsomes; details: human, liver microsomes, pH 7.4, HLM CLint, human liver microsomes; average of n = 2 replicates; < 7 means < 15% loss over 60 min
Summary of the method: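 Compound depletion in human liver microsomes was followed by LC–MS at 2–60 min, with cofactor-free controls. First-order depletion rate constants gave in vitro CLint (µL/min/mg protein), corrected to unbound CLint using measured microsomal fu.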

| Compound | Fraction unbound, Albumax [1] | Solubility FaSSGF (1 h) ([2]; 37 °C) | Solubility FaSSIF-V2 (5–6 h) ([2]; 37 °C) | Solubility FeSSIF-V2 (5–6 h) ([2]; 37 °C) | Solubility PBS7.4 (5–6 h) ([2]; 37 °C) | Measured Log D7.4 [3] | CYP2C19 % inhibition at max conc (CYP2C19; microsomes) | pIC50 (CYP2C19; microsomes) | CYP2C9 % inhibition at max conc (CYP2C9; microsomes) | pIC50 (CYP2C9; microsomes) | CYP3A4 (midaz) % inhibition at max conc (CYP3A4; microsomes) | CYP3A4 (test) % inhibition at max conc (CYP3A4; microsomes) | pIC50 (CYP3A4; microsomes) | further results |
| --- | --- | --- | --- | --- | --- | --- | --- | --- | --- | --- | --- | --- | --- | --- |
| CS(=O)(=O)O.FC1CCN(CCOc2ccc(C3CCC4(CC3)OOC3(OO4)C4CC5CC(C4)CC3C5)cc2)CC1 (stereo not shown) [TDD-E209] | 0.0070 ± 0.0010 | 211 µg/mL and 421 µM | 87.2 µg/mL and 174 µM | > 2000 µg/mL and > 4000 µM | 0.056 µg/mL and 0.112 µM |  |  |  |  |  |  |  |  |  |
| Cc1cc(Nc2ccc(C(F)(F)F)nc2)n2nc(C(C)(F)F)nc2n1 [DSM421] | 0.43 ± 0.020 |  |  |  | 85.5 µg/mL and 239 µM |  |  |  |  |  |  |  |  |  |
| CCN(CC)CCCNc1ccnc2cc(Cl)ccc12.Cl.Cl [AQ-13] | 0.85 ± 0.028 | > 2000 µg/mL and > 6850 µM | > 2000 µg/mL and > 6850 µM | > 2000 µg/mL and > 6850 µM | 1480 µg/mL and 5070 µM | 1.30 | nmi | < 4.70 | nmi | < 4.70 | nmi | nmi | < 4.70 |  |
| O=C(NCCN1CCCC1)c1cc(-c2ccc(CN3CCOCC3)cc2)nc2ccc(F)cc12 [M5717] | 0.55 ± 0.041 |  |  |  |  |  | nmi | < 4.70 | nmi | < 4.70 | nmi | nmi | < 4.70 | solubility in all media tested ([2]; FaSSGF): > 2 mg/mL |
| CN(C)C[c-]1cccc1CNc1ccnc2cc(Cl)ccc12.[Fe+2].c1cc[cH-]c1 (stereo not shown) [Ferroquine] | 0.52 ± 0.031 | > 2000 µg/mL and > 4600 µM | 320 µg/mL and 738 µM | > 2000 µg/mL and > 4600 µM | 4.9 µg/mL and 11 µM | 3.39 | nmi | < 4.70 | nmi | < 4.70 |  | 42% |  | pKi (CYP3A4; microsomes): 5.28 |
| CC(C)(C)NCc1cc(C(C)(C)C)cc(-c2cnc(C(F)(F)F)c(F)c2)c1O [JPC3210] | 0.21 ± 0.012 | 213 µg/mL and 535 µM | 7.60 µg/mL and 19.1 µM | 131 µg/mL and 329 µM | 0.800 µg/mL and 2.01 µM | 5.30 | nmi | < 4.70 | nmi | < 4.70 | nmi | nmi | < 4.70 |  |
| CC(C)(C)NCc1cc(Nc2ccnc3cc(Cl)ccc23)c2c(c1O)CCCC2 [Naphthoquine] | 0.27 ± 0.035 | > 2000 µg/mL and > 4880 µM | 410 µg/mL and 1000 µM | 941 µg/mL and 2300 µM | 28.5 µg/mL and 69.5 µM | 4.18 | nmi | < 4.70 | nmi | < 4.70 | 41% | 38% | < 4.70 |  |
| CCCCN(CCCC)CC(O)c1cc(Cl)cc2c1-c1ccc(Cl)cc1/C2=C/c1ccc(Cl)cc1 (stereo not shown) [Lumefantrine] |  |  |  |  |  |  | nmi |  | nmi |  | nmi | nmi |  | microsomal CLint at 1 µM [4]: < 7 µL/min/mg; pIC50 (CYP2C19): < 4.70; pIC50 (CYP2C9): < 4.70; pIC50 (CYP3A4; CYP3A4 (midaz) IC50, human liver microsomes, CYP3A4 (midaz), highest concentration tested 20 µM): < 4.70; pIC50 (CYP3A4; CYP3A4 (test) IC50, human liver microsomes, CYP3A4 (test), highest concentration tested 20 µM): < 4.70; solubility at 1 h ([2]; FaSSGF, 37 °C, fassgf or other biorelevant, thermodynamic from solid): 12.6 µg/mL and 23.8 µM; solubility ([2]; FaSSIF-V2, 37 °C, fassif, thermodynamic from solid): 0.063 µg/mL and 0.119 µM; solubility ([2]; FeSSIF-V2, 37 °C, fessif, thermodynamic from solid): 14.4 µg/mL and 27.2 µM; solubility ([2]; phosphate buffered saline pH 7.4, 37 °C, pH 7.4, aqueous buffer, thermodynamic from solid): < 0.05 µg/mL and < 0.1 µM |
| CCc1nc(N)nc(N)c1OCCCOc1ccccc1CCC(=O)O.Cl [P218] | 0.41 ± 0.022 | > 2000 µg/mL and > 5550 µM | 408 µg/mL and 1130 µM | 525 µg/mL and 1460 µM | 1070 µg/mL and 2960 µM | 0.080 | nmi | < 4.70 | nmi | < 4.70 | nmi | nmi | < 4.70 | solubility in all media tested ([2]; FaSSGF): 0.4 to 0.5 mg/mL |
| COc1cc2[nH]c(C)c(-c3ccc(Oc4ccc(OC(F)(F)F)cc4)cc3)c(=O)c2cc1Cl [ELQ300] |  | 0.929 µg/mL and 1.95 µM | 0.524 µg/mL and 1.10 µM | 0.065 µg/mL and 0.137 µM | 0.102 µg/mL and 0.214 µM |  | 41% | < 4.70 |  | 5.12 |  | nmi | < 4.70 | pKi (CYP2C9; microsomes): 5.27 |
| COc1cc(N[C@H](C)CCCN)c2nccc(C)c2c1Oc1ccc(Cl)c(Cl)c1 [NPC1161B] | 0.035 ± 0.0020 | 1520 µg/mL and 3500 µM | 19.9 µg/mL and 45.8 µM | > 2000 µg/mL and > 4600 µM | 5.44 µg/mL and 12.5 µM |  |  | 5.02 | 37% | < 4.70 | 37% |  |  | pKi (CYP2C19; microsomes): 5.24; pKi (CYP3A4; microsomes): 5.09 |
